Reference: US12600724B2, “Indole alkaloid and preparation method and use thereof” (NANJING UNIVERSITY OF CHINESE MEDICINE, priority 2022, dated 2026)

The compounds below were run on primary DRG neuron (assay: Axon growth of primary DRG neurons (immunofluorescence, Neuro J)). Settings: 10 μm, 24 hours.
Assay type: cell-based, C57BL/6J mice
Experimental: Diabetic peripheral neuropathy involved a sensory neuron first, and a main pathological change was axonal atrophy and degeneration, or even disappearance. […] Therefore, the compounds in the examples were added with the primary DRG neuron to incubate for a certain period of time, then the axon growth of the DRG neuron was detected by immunofluorescence, and an axon length was quantified by Neuro J, so as to evaluate the promotion effect of the compound on the axon growth of the peripheral sensory neuron.
Primary antibodies of mice anti-β-tubulin III used for fluorescent staining were purchased from Sigma Company, cell culture reagents were all purchased from Gibco Company, and DRG neuronal cells were taken from C57BL/6J mice. Specific experimental steps were as follows: fresh DRG of the C57 mice was extracted to digest into a single-cell suspension and then inoculated into a culture plate for adherent culture overnight, with vinblastine as a positive drug, the to-be-detected compounds S1 to S87 ([…]) synthesized in the above examples were given to incubate for 24 hours, then an original culture medium was removed, 4% paraformaldehyde was added into each well to fix for 15 minutes after PBS washing, the mixture was permeabilized with 0.3% TritonX-100 for 5 minutes and sealed at room temperature with 4% BSA for 1 hour, a primary antibody (1:1000) was incubated at 4° C. overnight, a goat anti-mouse fluorescent secondary antibody (1:300) was incubated at room temperature in the dark for 1 hour, and a sealed slide was imaged by a fluorescence microscope (Leica). According to the image, a total axon length of a single DRG neuron was tracked by a Neuro J plug-in in Image J software, and a multiple of the total axon length relative to that of the blank control group was calculated.
For CC[C@@]12C=C(C(=O)NCC(=O)OCCOCCOCCOCCOC)n3c4c(c5ccccc53)CCN(CCC1)[C@H]42 [Compound S3], the “Promotion of axon growth of the primary DRG neuron compared with the positive drug (in words)” value was “more outstanding effect”.
CC[C@@]12C=C(C(=O)NCC(=O)OCCOCCOCCOCCOCCO)n3c4c(c5ccccc53)CCN(CCC1)[C@H]42 [Compound S27] was tested, and the “Promotion of axon growth of the primary DRG neuron compared with the positive drug (in words)” value was “more outstanding effect”.
For CC[C@@]12C=C(C(=O)OCCCC(=O)OCCOCCOCCOCCOCCOCCO)n3c4c(c5ccccc53)CCN(CCC1)[C@H]42 [Compound S62], the “Promotion of axon growth of the primary DRG neuron compared with the positive drug (in words)” value was “more outstanding effect”.
CC[C@@]12C=C(C(=O)NCC(=O)O)n3c4c(c5ccccc53)CCN(CCC1)[C@H]42 [Compound S66] was tested, and the “Promotion of axon growth of the primary DRG neuron compared with the positive drug (in words)” value was “more outstanding effect”.

Same assay, conditions: Mus musculus, 24 hours, multiple of total axon length of a single DRG neuron relative to blank control group
Work on CC[C@@]12C=C(C(=O)NCC(=O)OCCOCCOC)n3c4c(c5ccccc53)CCN(CCC1)[C@H]42 [Compound S1] yielded a fold induction at 10 µM of 9.7.
CC[C@@]12C=C(C(=O)NCC(=O)OCCOCCOCCOC)n3c4c(c5ccccc53)CCN(CCC1)[C@H]42 [Compound S2] showed a fold induction at 10 µM of 9.5.
Compound CC[C@@]12C=C(C(=O)NCC(=O)OCCOCCOCCOCCOC)n3c4c(c5ccccc53)CCN(CCC1)[C@H]42 [Compound S3] has a fold induction at 10 µM of 13.2.
CC[C@@]12C=C(C(=O)NCC(=O)OCCOCCOCCOCCOCCOC)n3c4c(c5ccccc53)CCN(CCC1)[C@H]42 [Compound S4] gave a fold induction at 10 µM of 11.5.
CC[C@@]12C=C(C(=O)N[C@@H](CC(C)C)C(=O)OCCOCCOCCOCCOC)n3c4c(c5ccccc53)CCN(CCC1)[C@H]42 [Compound S13] was tested, and the fold induction at 10 µM was 11.6.
Work on CC[C@@]12C=C(C(=O)N[C@@H](Cc3ccccc3)C(=O)OCCOCCOCCOCCOC)n3c4c(c5ccccc53)CCN(CCC1)[C@H]42 [Compound S14] yielded a fold induction at 10 µM of 10.5.
CC[C@@]12C=C(C(=O)N[C@@H](CO)C(=O)OCCOCCOCCOCCOC)n3c4c(c5ccccc53)CCN(CCC1)[C@H]42 [Compound S15] showed a fold induction at 10 µM of 11.3.
Work on CC[C@@]12C=C(C(=O)N[C@@H](CC(N)=O)C(=O)OCCOCCOCCOCCOC)n3c4c(c5ccccc53)CCN(CCC1)[C@H]42 [Compound S16] yielded a fold induction at 10 µM of 11.2.
Compound CC[C@@]12C=C(C(=O)NCC(=O)OCCO)n3c4c(c5ccccc53)CCN(CCC1)[C@H]42 [Compound S23] has a fold induction at 10 µM of 10.3.
CC[C@@]12C=C(C(=O)NCC(=O)OCCOCCO)n3c4c(c5ccccc53)CCN(CCC1)[C@H]42 [Compound S24] gave a fold induction at 10 µM of 11.7.
Work on CC[C@@]12C=C(C(=O)NCC(=O)OCCOCCOCCO)n3c4c(c5ccccc53)CCN(CCC1)[C@H]42 [Compound S25] yielded a fold induction at 10 µM of 12.3.
For CC[C@@]12C=C(C(=O)NCC(=O)OCCOCCOCCOCCOCCO)n3c4c(c5ccccc53)CCN(CCC1)[C@H]42 [Compound S27], the fold induction at 10 µM was 12.9.
CC[C@@]12C=C(C(=O)NCC(=O)OCCOCCOCCOCCOCCOCCO)n3c4c(c5ccccc53)CCN(CCC1)[C@H]42 [Compound S28] showed a fold induction at 10 µM of 12.2.
CC[C@@]12C=C(C(=O)N[C@@H](C)C(=O)OCCOCCOCCOCCO)n3c4c(c5ccccc53)CCN(CCC1)[C@H]42 [Compound S29] gave a fold induction at 10 µM of 12.5.
Work on CC[C@@]12C=C(C(=O)N[C@H](C(=O)OCCOCCOCCOCCO)C(C)C)n3c4c(c5ccccc53)CCN(CCC1)[C@H]42 [Compound S30] yielded a fold induction at 10 µM of 12.6.
With CC[C@@]12C=C(C(=O)N[C@@H](CC(C)C)C(=O)OCCOCCOCCOCCO)n3c4c(c5ccccc53)CCN(CCC1)[C@H]42 [Compound S31] the fold induction at 10 µM was 11.8.
CCC(C)[C@H](NC(=O)C1=C[C@]2(CC)CCCN3CCc4c(n1c1ccccc41)[C@@H]32)C(=O)OCCOCCOCCOCCO (stereo partly shown) [Compound S32] showed a fold induction at 10 µM of 12.3.
Work on CC[C@@]12C=C(C(=O)N[C@@H](Cc3ccccc3)C(=O)OCCOCCOCCOCCO)n3c4c(c5ccccc53)CCN(CCC1)[C@H]42 [Compound S33] yielded a fold induction at 10 µM of 10.9.
Compound CC[C@@]12C=C(C(=O)N[C@@H](CO)C(=O)OCCOCCOCCOCCO)n3c4c(c5ccccc53)CCN(CCC1)[C@H]42 [Compound S34] has a fold induction at 10 µM of 10.5.
Work on CC[C@@]12C=C(C(=O)N[C@H](C(=O)OCCOCCOCCOCCO)C(C)O)n3c4c(c5ccccc53)CCN(CCC1)[C@H]42 (stereo partly shown) [Compound S35] yielded a fold induction at 10 µM of 12.1.
For CC[C@@]12C=C(C(=O)N[C@@H](CCC(N)=O)C(=O)OCCOCCOCCOCCO)n3c4c(c5ccccc53)CCN(CCC1)[C@H]42 [Compound S36], the fold induction at 10 µM was 11.7.
CC[C@@]12C=C(C(=O)N[C@@H](Cc3cc4ccccc4[nH]3)C(=O)OCCOCCOCCOCCO)n3c4c(c5ccccc53)CCN(CCC1)[C@H]42 [Compound S37] showed a fold induction at 10 µM of 10.8.
CC[C@@]12C=C(C(=O)N[C@@H](CN)C(=O)OCCOCCOCCOCCO)n3c4c(c5ccccc53)CCN(CCC1)[C@H]42 [Compound S39] showed a fold induction at 10 µM of 11.2.
CC[C@@]12C=C(C(=O)N[C@@H](CCCCN)C(=O)OCCOCCOCCOCCO)n3c4c(c5ccccc53)CCN(CCC1)[C@H]42 [Compound S40] gave a fold induction at 10 µM of 11.4.
Compound CC[C@@]12C=C(C(=O)N[C@@H](CC(N)=O)C(=O)OCCOCCOCCOCCO)n3c4c(c5ccccc53)CCN(CCC1)[C@H]42 [Compound S41] has a fold induction at 10 µM of 11.
CC[C@@]12C=C(C(=O)N[C@@H](CC(=O)O)C(=O)OCCOCCOCCOCCO)n3c4c(c5ccccc53)CCN(CCC1)[C@H]42 [Compound S42] was tested, and the fold induction at 10 µM was 10.3.
With CC[C@@]12C=C(C(=O)N[C@@H](CCC(=O)O)C(=O)OCCOCCOCCOCCO)n3c4c(c5ccccc53)CCN(CCC1)[C@H]42 [Compound S43] the fold induction at 10 µM was 11.2.
CC[C@@]12C=C(C(=O)N[C@@H](Cc3ccc(O)cc3)C(=O)OCCOCCOCCOCCO)n3c4c(c5ccccc53)CCN(CCC1)[C@H]42 [Compound S44] gave a fold induction at 10 µM of 9.9.
Work on CC[C@@]12C=C(C(=O)N[C@@H](Cc3c[nH]cn3)C(=O)OCCOCCOCCOCCO)n3c4c(c5ccccc53)CCN(CCC1)[C@H]42 [Compound S45] yielded a fold induction at 10 µM of 10.5.
CC[C@@]12C=C(C(=O)N[C@@H](CS)C(=O)OCCOCCOCCOCCO)n3c4c(c5ccccc53)CCN(CCC1)[C@H]42 [Compound S46] was tested, and the fold induction at 10 µM was 10.7.
CC[C@@]12C=C(C(=O)NCC(=O)N[C@@H](C)C(=O)OCCOCCOCCO)n3c4c(c5ccccc53)CCN(CCC1)[C@H]42 [Compound S47] was tested, and the fold induction at 10 µM was 11.2.
CC[C@@]12C=C(C(=O)NCC(=O)N[C@@H](CO)C(=O)OCCOCCOCCOCCO)n3c4c(c5ccccc53)CCN(CCC1)[C@H]42 [Compound S48] was tested, and the fold induction at 10 µM was 11.4.
For CC[C@@]12C=C(C(=O)NCC(=O)N[C@@H](CC(N)=O)C(=O)OCCOCCOCCOCCO)n3c4c(c5ccccc53)CCN(CCC1)[C@H]42 [Compound S49], the fold induction at 10 µM was 12.
Work on CC[C@@]12C=C(C(=O)NCC(=O)N[C@@H](CC(=O)O)C(=O)OCCOCCOCCOCCO)n3c4c(c5ccccc53)CCN(CCC1)[C@H]42 [Compound S50] yielded a fold induction at 10 µM of 11.3.
CC[C@@]12C=C(C(=O)NCC(=O)N[C@@H](CC(C)C)C(=O)OCCOCCOCCOCCO)n3c4c(c5ccccc53)CCN(CCC1)[C@H]42 [Compound S51] gave a fold induction at 10 µM of 9.8.
In the case of CC[C@@]12C=C(C(=O)NCC(=O)N[C@H](C(=O)OCCOCCOCCOCCO)C(C)O)n3c4c(c5ccccc53)CCN(CCC1)[C@H]42 (stereo partly shown) [Compound S52], the fold induction at 10 µM is reported as 9.5.
CC[C@@]12C=C(C(=O)OCCC(=O)OCCO)n3c4c(c5ccccc53)CCN(CCC1)[C@H]42 [Compound S53] was tested, and the fold induction at 10 µM was 9.9.
With CC[C@@]12C=C(C(=O)OCCC(=O)OCCOCCO)n3c4c(c5ccccc53)CCN(CCC1)[C@H]42 [Compound S56] the fold induction at 10 µM was 11.3.
Work on CC[C@@]12C=C(C(=O)OCCC(=O)OCCOCCOCCO)n3c4c(c5ccccc53)CCN(CCC1)[C@H]42 [Compound S57] yielded a fold induction at 10 µM of 10.8.
Work on CC[C@@]12C=C(C(=O)OCCC(=O)OCCOCCOCCOCCO)n3c4c(c5ccccc53)CCN(CCC1)[C@H]42 [Compound S58] yielded a fold induction at 10 µM of 11.4.
Work on CC[C@@]12C=C(C(=O)OCCC(=O)OCCOCCOCCOCCOCCO)n3c4c(c5ccccc53)CCN(CCC1)[C@H]42 [Compound S59] yielded a fold induction at 10 µM of 10.6.
Compound CC[C@@]12C=C(C(=O)OCCC(=O)OCCOCCOCCOCCOCCOCCO)n3c4c(c5ccccc53)CCN(CCC1)[C@H]42 [Compound S60] has a fold induction at 10 µM of 12.
CC[C@@]12C=C(C(=O)OCCCC(=O)OCCOCCOCCOCCO)n3c4c(c5ccccc53)CCN(CCC1)[C@H]42 [Compound S61] was tested, and the fold induction at 10 µM was 11.3.
CC[C@@]12C=C(C(=O)OCCCC(=O)OCCOCCOCCOCCOCCOCCO)n3c4c(c5ccccc53)CCN(CCC1)[C@H]42 [Compound S62] was tested, and the fold induction at 10 µM was 12.8.
CC[C@@]12C=C(C(=O)N(C)CC(=O)OCCOCCOCCOCCO)n3c4c(c5ccccc53)CCN(CCC1)[C@H]42 [Compound S63] was tested, and the fold induction at 10 µM was 10.9.
With CC[C@@]12C=C(C(=O)N(CC(=O)OCCOCCOCCOCCO)C3CC3)n3c4c(c5ccccc53)CCN(CCC1)[C@H]42 [Compound S64] the fold induction at 10 µM was 11.3.
Work on CC[C@@]12C=C(C(=O)NCCNC(=O)OCCOCCOCCOCCO)n3c4c(c5ccccc53)CCN(CCC1)[C@H]42 [Compound S65] yielded a fold induction at 10 µM of 11.
CC[C@@]12C=C(C(=O)NCC(=O)O)n3c4c(c5ccccc53)CCN(CCC1)[C@H]42 [Compound S66] was tested, and the fold induction at 10 µM was 12.8.
Compound CC[C@@]12C=C(C(=O)N[C@@H](CC(C)C)C(=O)O)n3c4c(c5ccccc53)CCN(CCC1)[C@H]42 [Compound S67] has a fold induction at 10 µM of 11.3.
In the case of CC[C@@]12C=C(C(=O)N[C@@H](CO)C(=O)O)n3c4c(c5ccccc53)CCN(CCC1)[C@H]42 [Compound S68], the fold induction at 10 µM is reported as 11.
CC[C@@]12C=C(C(=O)N[C@H](C(=O)O)C(C)O)n3c4c(c5ccccc53)CCN(CCC1)[C@H]42 (stereo partly shown) [Compound S69] showed a fold induction at 10 µM of 12.3.
